Measured values: ChEMBL document CHEMBL2073747, “Methadone inhibits rhodamine123 transport in Caco-2 cells” (Drug Metab Dispos, 2001)

Assays:
[1] = biological target: T1, ATP-dependent translocase ABCB1 (Homo sapiens, UniProt P08183); assay: TP_TRANSPORTER: inhibition of Rhodamine 123 transepithelial transport (basal to apical) (Rhodamine 123: 5 uM) in Caco-2 cells; type: functional, cell-based
[2] = biological target: T1, ATP-dependent translocase ABCB1; assay: TP_TRANSPORTER: transepithelial transport (basal to apical) in Caco-2 cells; type: functional, cell-based

T1 sequence (P08183 whole entry): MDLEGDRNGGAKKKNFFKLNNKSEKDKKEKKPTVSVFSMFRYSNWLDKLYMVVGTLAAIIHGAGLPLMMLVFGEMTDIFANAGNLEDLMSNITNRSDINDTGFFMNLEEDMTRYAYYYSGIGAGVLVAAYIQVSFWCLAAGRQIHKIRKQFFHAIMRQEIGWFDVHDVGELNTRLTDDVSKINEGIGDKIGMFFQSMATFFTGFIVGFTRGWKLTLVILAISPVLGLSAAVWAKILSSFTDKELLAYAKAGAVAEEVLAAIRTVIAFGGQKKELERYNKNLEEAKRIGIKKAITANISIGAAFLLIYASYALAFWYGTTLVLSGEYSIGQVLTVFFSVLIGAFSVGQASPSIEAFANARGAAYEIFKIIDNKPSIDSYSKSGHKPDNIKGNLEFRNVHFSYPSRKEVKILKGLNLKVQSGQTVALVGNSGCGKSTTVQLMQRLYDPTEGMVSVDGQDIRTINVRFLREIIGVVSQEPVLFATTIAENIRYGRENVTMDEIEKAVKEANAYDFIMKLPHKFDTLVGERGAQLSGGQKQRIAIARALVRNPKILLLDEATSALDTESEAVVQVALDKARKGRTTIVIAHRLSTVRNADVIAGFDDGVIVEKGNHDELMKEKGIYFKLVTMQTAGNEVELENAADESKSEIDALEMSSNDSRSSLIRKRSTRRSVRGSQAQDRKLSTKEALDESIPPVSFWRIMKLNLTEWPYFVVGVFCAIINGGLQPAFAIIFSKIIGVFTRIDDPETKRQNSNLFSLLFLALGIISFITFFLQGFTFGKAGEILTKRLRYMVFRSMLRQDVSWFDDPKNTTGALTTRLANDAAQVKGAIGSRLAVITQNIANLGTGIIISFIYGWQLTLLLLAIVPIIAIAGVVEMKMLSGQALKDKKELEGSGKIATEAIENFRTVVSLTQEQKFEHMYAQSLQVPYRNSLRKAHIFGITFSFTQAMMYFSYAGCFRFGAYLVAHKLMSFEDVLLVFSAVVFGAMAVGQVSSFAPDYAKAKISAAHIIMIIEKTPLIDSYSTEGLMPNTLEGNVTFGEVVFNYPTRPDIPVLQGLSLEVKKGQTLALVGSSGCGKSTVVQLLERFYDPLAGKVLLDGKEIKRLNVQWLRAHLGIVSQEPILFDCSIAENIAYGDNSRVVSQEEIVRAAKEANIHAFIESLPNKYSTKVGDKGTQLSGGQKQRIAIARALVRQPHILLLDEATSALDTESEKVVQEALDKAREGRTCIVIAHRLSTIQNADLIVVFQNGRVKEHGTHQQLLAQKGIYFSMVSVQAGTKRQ

CCC(=O)C(CC(C)N(C)C)(c1ccccc1)c1ccccc1 (configuration not stated) [METHADONE]
IC50 [1]: 7.5 µM | Activity [2]: is not a substrate [-]
